According to patent publication US5278142A, “Systemic delivery of polypeptides through the eye” (Orbon Corporation, priority 1992, dated 1994):
Where “and” joins values, the source holds several entries; their conditions need not be identical. Equal values may be shown once. Blank lines part the entries; values can stand above or below the compound they belong to.

Experiments:
[1] = Blood concentration of TRH, LHRH and glucagon after ocular instillation or i.v. injection (Example 5)
Source text: The concentrations of peptides in the blood were expressed in ng/ml.

blood glucose = test: Effects of absorption enhancers plus insulin on blood glucose concentrations; assay type: in vivo, New Zealand white rabbits; conditions: for % Change in Blood Glucose Concentration / Blood Glucose Concentration After / Blood Glucose Concentration Before: eye drops 1% insulin plus 1% absorption enhancer (Control: 1% insulin only)
[2] = Effects of absorption enhancers on the penetration of insulin into eyeballs; assay type: in vivo, New Zealand white rabbits; conditions: 1% insulin plus enhancer
[3] = Amount of enkephalin-equivalent remaining in eye tissues at the end of 12 hr experiment
[4] = Blood enkephalin-equivalent concentration after ocular instillation or i.v. injection; conditions: enkephalin 50 ug i.v.
[5] = Effects of absorption enhancers on insulin penetration (blood insulin concentration)
[6] = 1% enhancer with 1% insulin eye drops

Compound: O=C(O)CNC(=O)C(CS)Cc1ccccc1 (racemic) [D,L-Thiorphan, D,L-thiorphan]
effect of added peptidase inhibitors on systemic absorption of TRH ([1]; Leu-Leu 4 mM, Bestatin 60 uM, D,L-Thiorphan 0.6 uM): did not significantly enhance the systemic absorption of TRH

Compound: C[N+](C)(C)CCCCCCCCCC[N+](C)(C)C [Decamethonium, decamethonium bromide]
% Change in Blood Glucose Concentration (blood glucose): 8%
Blood Glucose Concentration After (blood glucose): 83 ± 2 mg %
Blood Glucose Concentration Before (blood glucose): 90 ± 3 mg %

Compound: CC(=O)O[C@H]1C[C@@]2(C)[C@@H](C[C@@H](O)[C@H]3[C@@]4(C)CC[C@@H](O)[C@@H](C)[C@@H]4CC[C@@]32C)/C1=C(\CCC=C(C)C)C(=O)O [Fusidic acid, sodium fusidate]
% Change in Blood Glucose Concentration (blood glucose): 43%
Blood Glucose Concentration After (blood glucose): 51 mg % and 51 ± 2 mg %
Blood Glucose Concentration Before (blood glucose): 90 mg % and 90 ± 3 mg %

% of insulin taken up by the eyeball [2]: 0.0804%
Absolute amount of insulin in the eyeball [2]: 200 ng
Compound: C[C@H](CCC(=O)NCC(=O)O)[C@H]1CC[C@H]2[C@@H]3[C@H](O)C[C@@H]4C[C@H](O)CC[C@]4(C)[C@H]3C[C@H](O)[C@]12C [Glycocholate, sodium glycocholate]
% Change in Blood Glucose Concentration (blood glucose): 13%
Blood Glucose Concentration After (blood glucose): 94 mg % and 94 ± 4 mg %
Blood Glucose Concentration Before (blood glucose): 108 mg % and 108 ± 7 mg %

eye-drop concentration sufficient to reach therapeutic effective blood concentration ([1]; rabbit, in vivo): 0.005%
Compound: CC(C)C[C@H](NC(=O)CNC(=O)[C@H](Cc1ccc(O)cc1)NC(=O)[C@H](CO)NC(=O)[C@H](Cc1c[nH]c2ccccc12)NC(=O)[C@H](Cc1cnc[nH]1)NC(=O)[C@@H]1CCC(=O)N1)C(=O)N[C@@H](CCCNC(=N)N)C(=O)N1CCC[C@H]1C(=O)NCC(N)=O [LHRH, luteinizing hormone-releasing hormone]

plateau blood TRH concentration ([1]; female, New Zealand white, rabbit, in vivo, topical or ocular, 1 % solution (25 ul)): 26 ng/mL
eye-drop concentration giving a therapeutic blood concentration of TRH ([1]; rabbit, in vivo): ≥ 0.0025%
time remained at the plateau ([1]; rabbit, in vivo): approximately 10 hrs
time to peak ([1]; rabbit, in vivo): 60 min
Compound: NC(=O)[C@@H]1CCCN1C(=O)[C@H](Cc1cnc[nH]1)NC(=O)[C@@H]1CCC(=O)N1 [TRH, Thyrotrophin-releasing hormone]

Compound: CC(C)C[C@H](NC(=O)[C@H](Cc1ccccc1)NC(=O)CNC(=O)CNC(=O)[C@@H](N)Cc1ccc(O)cc1)C(=O)O [enkephalin, Leucine-enkephalin (5-L-leucine)]
Residual enkephalin remaining in tissues: % of instilled ([3]; Choroid, 5% enkephalin): 0.0110 ± 0.008%
Residual enkephalin remaining in tissues: % of instilled ([3]; Ciliary-Body, 0.1245% enkephalin): 0.0156 ± 0.003%
Residual enkephalin remaining in tissues: % of instilled ([3]; Ciliary-Body, 1% enkephalin): 0.0108 ± 0.005%
Residual enkephalin remaining in tissues: % of instilled ([3]; Ciliary-Body, 5% enkephalin): 0.0042 ± 0.002%
Residual enkephalin remaining in tissues: % of instilled ([3]; Cornea, 1% enkephalin): 0.0601 ± 0.015%
Residual enkephalin remaining in tissues: % of instilled ([3]; Cornea, 5% enkephalin): 0.0427 ± 0.012%
Residual enkephalin remaining in tissues: % of instilled ([3]; Iris, 0.1245% enkephalin): 0.0252 ± 0.003%
Residual enkephalin remaining in tissues: % of instilled ([3]; Iris, 1% enkephalin): 0.0117 ± 0.005%
Residual enkephalin remaining in tissues: % of instilled ([3]; Lens, 0.1245% enkephalin): 0.0834 ± 0.013%
Residual enkephalin remaining in tissues: % of instilled ([3]; Retina, 0.1245% enkephalin): 0.0118 ± 0.004%
Residual enkephalin remaining in tissues: % of instilled ([3]; Retina, 5% enkephalin): 0.0036 ± 0.002%
Residual enkephalin remaining in tissues: % of instilled ([3]; Total, 0.1245% enkephalin): 0.3019%
Residual enkephalin remaining in tissues: % of instilled ([3]; Total, 1% enkephalin): 0.1713%
Residual enkephalin remaining in tissues: % of instilled ([3]; Total, 5% enkephalin): 0.1136%
Tx of blood concentration decline [4]: less than 30 min
lowest point of blood concentration ([4]; in 5 hrs): 22 ng/mL

Compound: polyoxyethylene sorbitan monolaurate [Tween 20]
effect on insulin absorption [5, 6]: only a slight increase in insulin absorption
Insulin peak Concentration ([5]; eye drops 1% insulin plus 1% absorption enhancer (Control: 1% insulin only), 25 ul): 8.8 ± 0.9 ng/mL
effect on blood glucose (blood glucose; [6]): a minute reduction in blood glucose concentration
% Change in Blood Glucose Concentration (blood glucose): 14%
Blood Glucose Concentration After (blood glucose): 77 ± 9 mg %
Blood Glucose Concentration Before (blood glucose): 90 ± 3 mg %
% of insulin taken up by the eyeball [2]: 0.0771%
Absolute amount of insulin in the eyeball [2]: 192 ng

% of insulin taken up by the eyeball [2]: 0.5221%
Absolute amount of insulin in the eyeball [2]: 1305 ng
Compound: polyoxyethylene-9-lauryl ether [BL-9]
% Change in Blood Glucose Concentration (blood glucose): 42%
Blood Glucose Concentration After (blood glucose): 56 mg % and 56 ± 3 mg %
Blood Glucose Concentration Before (blood glucose): 97 mg % and 97 ± 2 mg %
